Experimental data taken from patent publication US12390437B2, “Itaconic acid derivatives and uses thereof intreating an inflammatory disease or a disease associated with an undesirable immune response” (Sitryx Therapeutics Limited, priority 2019, dated 2025).

Columns and labels:
[1] = system: IL-6 cytokine output from THP-1s; test: THP-1 AlphaLISA IL-6 cytokine assay; assay type: cell-based, human; details: Homo sapiens; PMA-differentiated THP-1 cells, LPS 24 hr then Nigericin 1 hour
How it was run: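 AlphaLISA read-out of cytokine released into supernatants of differentiated THP-1 cells. Cells were PMA-treated for 72 h, exposed to compound for 30 min, stimulated with LPS for 24 h, then given nigericin for 1 h before harvest. IC50 values come from normalised concentration-response curves.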

[2] = Mouse pharmacokinetic study, intravenous dosing; assay type: in vivo; details: male, C57BL/6, mouse, iv, plasma, 10 mg/kg i.v., read-out: Parent compound concentration following intravenous administration
How it was run: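 Oral arm: 100 mg/kg gavage in 5% DMSO with 0.5% HPMC/0.1% Tween 80, blood from 5 min to 24 h. Intravenous arm: 10 mg/kg tail-vein injection in 10% DMSO with HP-β-CD, blood from 3 min to 8 h. Male C57BL/6 mice; LC-MS/MS on plasma.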

[3] = system: hepatocytes; test: Hepatocyte stability assay (mouse); assay type: in vitro ADME; details: 10 μM compound, 0.5×10^6 cells/mL, 60 minutes
How it was run: (§1)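 Cryopreserved hepatocytes (viability >70%), 0.5×10^6 cells/mL in Leibovitz buffer, incubated at 37 °C with 10 μM compound (0.1% DMSO), duplicates; buffer-only incubations as negative control. Samples at 0-60 min quenched in acetonitrile, parent measured by LC-MS/MS; half-life and Clint (μL min^−1 10^−6 cells) from ln % remaining versus time slope.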

[4] = Hepatocyte stability assay (mouse); assay type: in vitro ADME; details: cryopreserved hepatocytes, 10 μM compound, 0.5×10^6 cells/mL, 60 minutes, read-out: T½
How it was run: as §1

[5] = system: hepatocytes; test: Hepatocyte stability assay (human); assay type: in vitro ADME; details: 10 μM compound, 0.5×10^6 cells/mL, 60 minutes
How it was run: as §1

[6] = Hepatocyte stability assay (human); assay type: in vitro ADME; details: cryopreserved hepatocytes, 10 μM compound, 0.5×10^6 cells/mL, 60 minutes, read-out: T½
How it was run: as §1

IC50 [1] [µM]	concentration at 0.05 h [2] [ng/mL]	concentration at 0.133 h [2] [ng/mL]	concentration at 0.25 h [2] [ng/mL]	concentration at 0.5 h [2] [ng/mL]	concentration at 1 h [2] [ng/mL]	concentration at 2 h [2] [ng/mL]	concentration at 4 h [2] [ng/mL]	concentration at 6 h [2] [ng/mL]	concentration at 8 h [2] [ng/mL]	CIint (μL min^−1 10^−6 cells) [3] [μL min^−1 10^−6 cells]	half-life at 10 μM [4] [min]	CIint (μL min^−1 10^−6 cells) [5] [μL min^−1 10^−6 cells]	half-life at 10 μM [6] [min]	Compound
20.4	42500	23500	12400	6250	2510	200	40	11	4.2	297	7	134	13	C=C(CC(=O)O[C@H](C)CCCCCC)C(=O)OCCC(=O)O [Example 88, (R)-3-((2-methylene-4-(octan-2-yloxy)-4-oxobutanoyl)oxy)propanoic acid]
12.6	27800	12400	7680	2300	430	65	6.8	< 4	< 4	198	13	29	49	C=C(CC(=O)O[C@@H](C)CCCCCC)C(=O)OCC(=O)O [Example 89, (S)-2-((2-methylene-4-(octan-2-yloxy)-4-oxobutanoyl)oxy)acetic acid]
9.8	19200	7160	2020	1600	89	3.6	2.8	1.7	1.2	47	30	8	183	C=C(CC(=O)OC1CCCCCCC1)C(=O)OCC(=O)O [Example 90, 2-((4-(cyclooctyloxy)-2-methylene-4-oxobutanoyl)oxy)acetic acid]
47.1	15100	3590	659	169	6.4	3	< 0.8	< 0.8	< 0.8	112	12	11	126	C=C(CC(=O)OC1CC2(CCC2)C1)C(=O)OCC(=O)O [Example 96, 2-((2-methylene-4-oxo-4-(spiro[3.3]heptan-2-yloxy)butanoyl)oxy)acetic acid]
